This test in a line: Inhibition of Escherichia coli UTI89 PapD chaperon assessed as inhibition of biofilm formation.
With `O=C(O)c1c(-c2ccoc2)sc2c(C3CC3)c(Cc3cccc4ccccc34)cc(=O)n12`, the IC50 came to 78 µM. The value for `CC(C)(O)c1sc2c(C3CC3)c(Cc3cccc4ccccc34)cc(=O)n2c1C(=O)O` was 304 µM; that for `CS(=O)(=O)NC(=O)c1c(-c2ccccc2)sc2c(C3CC3)c(Cc3cccc4ccccc34)cc(=O)n12` was 39 µM. As for `O=C(O)c1c(-c2ccsc2)sc2c(C3CC3)c(Cc3cccc4ccccc34)cc(=O)n12`, the concentration for half-maximal inhibition (IC50) stood at 25 µM. With `Cc1sc2c(C3CC3)c(Cc3cccc4ccccc34)cc(=O)n2c1C(=O)O`, the IC50 came out at 90 µM. The value for `Cc1cccc(-c2sc3c(C4CC4)c(Cc4cccc5ccccc45)cc(=O)n3c2C(=O)O)c1` was 11 µM; that for `O=C(O)c1c(Cc2ccccc2)sc2c(C3CC3)c(Cc3cccc4ccccc34)cc(=O)n12` was 7 µM.

Take `O=C(O)c1c(-c2ccccc2)sc2c(C3CC3)c(Cc3cccc4ccccc34)cc(=O)n12`: the concentration for half-maximal inhibition (IC50) came out at 11 µM. For `O=C(O)c1c(-c2ccco2)sc2c(C3CC3)c(Cc3cccc4ccccc34)cc(=O)n12`, the IC50 came to 61 µM.

Consider `Cc1ccc(-c2sc3c(C4CC4)c(Cc4cccc5ccccc45)cc(=O)n3c2C(=O)O)cc1`, for which the IC50 is 13 µM.

Take `O=C(Nc1ccccc1)c1sc2c(C3CC3)c(Cc3cccc4ccccc34)cc(=O)n2c1C(=O)O`: the IC50 is 159 µM.

The IC50 is the concentration at which inhibition is half-maximal.

(Values after BindingDB's records for doi:10.1021/jm100470t (Ume&#163, 2010).)
